According to US6737383B1, “Herbicidal oxadiazolidines” (priority 1999, dated 2004):

Columns and labels:
[1] = test system: bedstraw; test: Test B pre/postemergence bedstraw; type: in vivo, Galium aparine
In short: (§1)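 Herbicidal effect was estimated by eye on a ten-point control scale after plants spent twelve to sixteen days in a greenhouse following soil or foliar treatment. Foliar sprays targeted plants at one to four leaves; all doses were formulated in a non-phytotoxic solvent with surfactant.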

[2] = test system: blackgrass; test: Test B pre/postemergence blackgrass; type: in vivo, Alopecurus myosuroides
In short: as §1

[3] = test system: surinam grass; test: Test B pre/postemergence surinam grass; type: in vivo, Brachiaria decumbens
In short: as §1

[4] = test system: cocklebur; test: Test B pre/postemergence cocklebur; type: in vivo, Xanthium strumarium
In short: as §1

[5] = test system: corn; test: Test B pre/postemergence corn; type: in vivo, Zea mays
In short: as §1

[6] = test system: crabgrass; test: Test B pre/postemergence crabgrass; type: in vivo, Digitaria sanguinalis
In short: as §1

[7] = test system: rape; test: Test B pre/postemergence rape; type: in vivo, Brassica napus
In short: as §1

[8] = test system: soybean; test: Test B pre/postemergence soybean; type: in vivo, Glycine max
In short: as §1

[9] = test system: sugar beet; test: Test B pre/postemergence sugar beet; type: in vivo, Beta vulgaris
In short: as §1

[10] = test system: velvetleaf; test: Test B pre/postemergence velvetleaf; type: in vivo, Abutilon theophrasti
In short: as §1

[11] = test system: wheat; test: Test B pre/postemergence wheat; type: in vivo, Triticum aestivum
In short: as §1

[12] = test system: wild oat; test: Test B pre/postemergence wild oat; type: in vivo, Avena fatua
In short: as §1

[13] = test system: purple nutsedge; test: Test B pre/postemergence purple nutsedge; type: in vivo, Cyperus rotundus
In short: as §1

[14] = test system: rice; test: Test B flood test rice; type: in vivo, Oryza sativa
In short: (§2)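 Flood test on plants grown to the 2-leaf stage; treated plants kept in greenhouse twelve to sixteen days, then visually rated against controls on a 0 (no effect) to 10 (complete control) scale.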

[15] = test system: smallflower flatsedge; test: Test B flood test smallflower flatsedge; type: in vivo, Cyperus difformis
In short: as §2

[16] = test system: duck salad; test: Test B flood test duck salad; type: in vivo, Heteranthera limosa
In short: as §2

[17] = test system: bamyardgrass; test: Test B flood test barnyardgrass; type: in vivo, Echinochloa crus-galli
In short: as §2

[18] = Postemergence, Rate 125 g/ha, scale 0 to 10, 0 is no effect, 10 is complete control
[19] = Preemergence, Rate 62 g/ha, scale of 0 to 10 where 0 is no effect and 10 is complete control
[20] = Preemergence, Rate 250 g/ha, scale of 0 to 10 where 0 is no effect and 10 is complete control
[21] = Preemergence, Rate 500 g/ha, scale of 0 to 10 where 0 is no effect and 10 is complete control
[22] = Rate 62 g/ha, Postemergence, scale 0 to 10 (0 no effect, 10 complete control)
[23] = Rate 250 g/ha, Postemergence, scale of 0 to 10 where 0 is no effect and 10 is complete control
[24] = Rate 500 g/ha, Postemergence, scale 0 to 10, 0 no effect, 10 complete control
[25] = Rate 62 g/ha, headed Pre-emergence (flood test species), scale 0 to 10 (0 no effect, 10 complete control)
[26] = Rate 125 g/ha, Pre-emergence, flood test species, scale 0 to 10 where 0 is no effect and 10 is complete control
[27] = Rate 250 g/ha, Pre-emergence, flood-test species, scale 0 to 10, 0 is no effect, 10 is complete control
[28] = Rate 500 g/ha, Pre-emergence, flood test species, scale 0 to 10 (0 no effect, 10 complete control)

Cc1c(-n2c(=O)on(C(=O)N(c3ccc(F)cc3F)C(C)C)c2=O)ccc2ccccc12 [Compound 337]
Plant response rating, Bedstraw [1, 18]: 1 | Bedstraw plant response rating [1, 19]: 0 | Bedstraw plant response rating (0 to 10 scale) ([1]; Preemergence, Rate 125 g/ha): 0 | Bedstraw plant response rating [1, 20]: 0 | Bedstraw plant response rating [1, 21]: 0 | Bedstraw plant response rating [1, 22]: 0 | Plant response rating, Bedstraw [1, 23]: 2 | Plant response rating, Bedstraw [1, 24]: 4 | Plant response rating, Blackgrass [2, 18]: 0 | Blackgrass plant response rating [2, 19]: 0 | Blackgrass plant response rating (0 to 10 scale) ([2]; Preemergence, Rate 125 g/ha): 0 | Blackgrass plant response rating [2, 20]: 2 | Blackgrass plant response rating [2, 21]: 3 | Blackgrass plant response rating [2, 22]: 0 | Plant response rating, Blackgrass [2, 23]: 0 | Plant response rating, Blackgrass [2, 24]: 0 | Plant response rating, B. signalgrass [3, 18]: 0 | B. signalgrass plant response rating [3, 19]: 0 | B. signalgrass plant response rating (0 to 10 scale, 0 is no effect, 10 is complete control) ([3]; Preemergence, Rate 125 g/ha): 0 | B. signalgrass plant response rating [3, 20]: 0 | B. signalgrass plant response rating [3, 21]: 0 | B. signalgrass plant response rating [3, 22]: 0 | Plant response rating, B. signalgrass [3, 23]: 0 | Plant response rating, B. signalgrass [3, 24]: 0 | Plant response rating, Cocklebur [4, 18]: 0 | Cocklebur plant response rating [4, 19]: 0 | Cocklebur plant response rating (0 to 10 scale) ([4]; Preemergence, Rate 125 g/ha): 0 | Cocklebur plant response rating [4, 20]: 0 | Cocklebur plant response rating [4, 21]: 0 | Cocklebur plant response rating [4, 22]: 0 | Plant response rating, Corn [5, 18]: 0 | Corn plant response rating [5, 19]: 0 | Corn plant response rating (0 to 10 scale) ([5]; Preemergence, Rate 125 g/ha): 0 | Corn plant response rating [5, 20]: 0 | Corn plant response rating [5, 21]: 0 | Corn plant response rating [5, 22]: 0 | Plant response rating, Corn [5, 24]: 0 | Plant response rating, Crabgrass [6, 18]: 0 | Crabgrass plant response rating [6, 19]: 0 | Crabgrass plant response rating (0 to 10 scale) ([6]; Preemergence, Rate 125 g/ha): 0 | Crabgrass plant response rating [6, 20]: 0 | Crabgrass plant response rating [6, 21]: 3 | Crabgrass plant response rating [6, 22]: 0 | Plant response rating, Crabgrass [6, 24]: 0 | Plant response rating, Rape [7, 18]: 0 | Rape plant response rating [7, 19]: 0 | Rape plant response rating (0 to 10 scale) ([7]; Preemergence, Rate 125 g/ha): 0 | Rape plant response rating [7, 20]: 0 | Rape plant response rating [7, 21]: 0 | Rape plant response rating [7, 22]: 0 | Plant response rating, Rape [7, 24]: 0 | Plant response rating, Soybean [8, 18]: 1 | Soybean plant response rating [8, 19]: 0 | Soybean plant response rating (0 to 10 scale) ([8]; Preemergence, Rate 125 g/ha): 0 | Soybean plant response rating [8, 20]: 0 | Soybean plant response rating [8, 21]: 0 | Soybean plant response rating [8, 22]: 1 | Plant response rating, Soybean [8, 24]: 2 | Plant response rating, Sugarbeets [9, 18]: 0 | Sugarbeets plant response rating [9, 19]: 0 | Sugarbeets plant response rating (0 to 10 scale) ([9]; Preemergence, Rate 125 g/ha): 0 | Sugarbeets plant response rating [9, 20]: 0 | Sugarbeets plant response rating [9, 21]: 0 | Sugarbeets plant response rating [9, 22]: 0 | Plant response rating, Sugarbeets [9, 24]: 0 | Plant response rating, Velvetleaf [10, 18]: 0 | Velvetleaf plant response rating [10, 19]: 0 | Velvetleaf plant response rating (0 to 10 scale) ([10]; Preemergence, Rate 125 g/ha): 0 | Velvetleaf plant response rating [10, 20]: 0 | Velvetleaf plant response rating [10, 21]: 0 | Velvetleaf plant response rating [10, 22]: 0 | Plant response rating, Velvetleaf [10, 24]: 0 | Plant response rating, Wheat [11, 18]: 0 | Wheat plant response rating [11, 19]: 0 | Wheat plant response rating (0 to 10 scale) ([11]; Preemergence, Rate 125 g/ha): 0 | Wheat plant response rating [11, 20]: 0 | Wheat plant response rating [11, 21]: 0 | Wheat plant response rating [11, 22]: 0 | Plant response rating, Wheat [11, 24]: 0 | Plant response rating, Wild oats [12, 18]: 0 | Wild oats plant response rating [12, 19]: 0 | Wild oats plant response rating (0 to 10 scale) ([12]; Preemergence, Rate 125 g/ha): 0 | Wild oats plant response rating [12, 20]: 0 | Wild oats plant response rating [12, 21]: 0 | Wild oats plant response rating [12, 22]: 0 | Plant response rating, Wild oats [12, 24]: 0 | Plant response rating, Nutsedge [13, 18]: 0 | Nutsedge plant response rating [13, 19]: 0 | Nutsedge plant response rating (0 to 10 scale) ([13]; Preemergence, Rate 125 g/ha): 0 | Nutsedge plant response rating [13, 20]: 0 | Nutsedge plant response rating [13, 21]: 0 | Nutsedge plant response rating [13, 22]: 0 | Plant response rating, Nutsedge [13, 24]: 0 | Rice plant response rating [14, 25]: 0 | Rice plant response rating [14, 26]: 0 | Rice plant response rating [14, 27]: 0 | Rice plant response rating [14, 28]: 0 | S. Flatsedge plant response rating [15, 25]: 0 | S. Flatsedge plant response rating [15, 26]: 0 | S. Flatsedge plant response rating [15, 27]: 0 | S. Flatsedge plant response rating [15, 28]: 0 | Ducksalad plant response rating [16, 25]: 0 | Ducksalad plant response rating [16, 26]: 0 | Ducksalad plant response rating [16, 27]: 0 | Ducksalad plant response rating [16, 28]: 0 | Barnyardgrass plant response rating [17, 25]: 0 | Barnyardgrass plant response rating [17, 26]: 0 | Barnyardgrass plant response rating [17, 27]: 0 | Barnyardgrass plant response rating [17, 28]: 5
